Source: ChEMBL document CHEMBL1201862, “PubChem BioAssay data set” (2004)
The source made the active and inactive calls.

Experiments:
[1] = molecular target: T1, Sentrin-specific protease 7 (Homo sapiens, UniProt Q9BQF6); assay: SENP7 protease inhibitors, SAR follow-up, biochemical, luminescence (AID 504497); format: functional
T1 sequence (Q9BQF6 whole entry): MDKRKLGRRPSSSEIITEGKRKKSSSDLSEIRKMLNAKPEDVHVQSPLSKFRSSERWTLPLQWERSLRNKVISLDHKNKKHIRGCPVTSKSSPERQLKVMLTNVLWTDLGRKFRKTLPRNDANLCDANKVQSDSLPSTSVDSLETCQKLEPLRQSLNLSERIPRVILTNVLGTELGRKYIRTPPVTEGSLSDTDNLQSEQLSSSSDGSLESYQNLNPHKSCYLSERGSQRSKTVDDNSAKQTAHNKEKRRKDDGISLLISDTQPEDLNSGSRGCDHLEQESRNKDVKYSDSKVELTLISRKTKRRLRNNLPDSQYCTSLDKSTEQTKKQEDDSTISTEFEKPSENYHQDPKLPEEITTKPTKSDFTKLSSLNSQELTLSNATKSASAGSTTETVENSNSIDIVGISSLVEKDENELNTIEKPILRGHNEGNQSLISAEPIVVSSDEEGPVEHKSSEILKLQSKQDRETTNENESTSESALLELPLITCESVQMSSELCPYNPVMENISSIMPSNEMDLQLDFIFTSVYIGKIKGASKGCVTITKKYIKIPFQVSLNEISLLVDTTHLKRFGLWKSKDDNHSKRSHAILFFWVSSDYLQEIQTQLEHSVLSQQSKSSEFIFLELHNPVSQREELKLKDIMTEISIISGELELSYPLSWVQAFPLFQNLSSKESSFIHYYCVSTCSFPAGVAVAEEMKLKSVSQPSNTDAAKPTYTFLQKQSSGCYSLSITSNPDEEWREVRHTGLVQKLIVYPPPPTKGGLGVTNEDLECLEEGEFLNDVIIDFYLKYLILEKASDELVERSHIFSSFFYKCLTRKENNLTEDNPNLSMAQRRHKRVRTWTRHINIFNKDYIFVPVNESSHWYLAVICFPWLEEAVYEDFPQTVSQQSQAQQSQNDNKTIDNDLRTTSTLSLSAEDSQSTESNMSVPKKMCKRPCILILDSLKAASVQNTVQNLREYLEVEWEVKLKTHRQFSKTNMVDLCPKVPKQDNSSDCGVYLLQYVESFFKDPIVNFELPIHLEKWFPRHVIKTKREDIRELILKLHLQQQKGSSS

Caspase-3 = molecular target: T2, Caspase-3 (Homo sapiens, UniProt P42574); assay: SAR Analysis of small molecule inhibitors of Sentrin-specific proteases (SENPs) using a Caspase-3 Selectivity assay. [Related pubchem assays (depositor defined):AID2540, AID2599, AID434973, AID489001]; format: functional
T2 sequence (P42574 whole entry): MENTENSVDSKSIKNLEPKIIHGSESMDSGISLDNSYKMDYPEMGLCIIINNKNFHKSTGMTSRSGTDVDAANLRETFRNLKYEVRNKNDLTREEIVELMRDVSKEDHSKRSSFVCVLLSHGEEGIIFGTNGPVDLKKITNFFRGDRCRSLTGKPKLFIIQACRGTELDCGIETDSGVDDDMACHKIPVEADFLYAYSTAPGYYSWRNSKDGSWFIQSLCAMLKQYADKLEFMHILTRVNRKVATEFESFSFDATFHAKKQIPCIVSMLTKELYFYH

[2] = molecular target: T3, Sentrin-specific protease 6 (Homo sapiens, UniProt Q9GZR1); assay: SAR Analysis of small molecule inhibitors of Sentrin-specific protease 6 (SENP6) using a Luminescent assay. [Related pubchem assays (depositor defined):AID2582, AID2599]; format: functional
T3 sequence (Q9GZR1 whole entry): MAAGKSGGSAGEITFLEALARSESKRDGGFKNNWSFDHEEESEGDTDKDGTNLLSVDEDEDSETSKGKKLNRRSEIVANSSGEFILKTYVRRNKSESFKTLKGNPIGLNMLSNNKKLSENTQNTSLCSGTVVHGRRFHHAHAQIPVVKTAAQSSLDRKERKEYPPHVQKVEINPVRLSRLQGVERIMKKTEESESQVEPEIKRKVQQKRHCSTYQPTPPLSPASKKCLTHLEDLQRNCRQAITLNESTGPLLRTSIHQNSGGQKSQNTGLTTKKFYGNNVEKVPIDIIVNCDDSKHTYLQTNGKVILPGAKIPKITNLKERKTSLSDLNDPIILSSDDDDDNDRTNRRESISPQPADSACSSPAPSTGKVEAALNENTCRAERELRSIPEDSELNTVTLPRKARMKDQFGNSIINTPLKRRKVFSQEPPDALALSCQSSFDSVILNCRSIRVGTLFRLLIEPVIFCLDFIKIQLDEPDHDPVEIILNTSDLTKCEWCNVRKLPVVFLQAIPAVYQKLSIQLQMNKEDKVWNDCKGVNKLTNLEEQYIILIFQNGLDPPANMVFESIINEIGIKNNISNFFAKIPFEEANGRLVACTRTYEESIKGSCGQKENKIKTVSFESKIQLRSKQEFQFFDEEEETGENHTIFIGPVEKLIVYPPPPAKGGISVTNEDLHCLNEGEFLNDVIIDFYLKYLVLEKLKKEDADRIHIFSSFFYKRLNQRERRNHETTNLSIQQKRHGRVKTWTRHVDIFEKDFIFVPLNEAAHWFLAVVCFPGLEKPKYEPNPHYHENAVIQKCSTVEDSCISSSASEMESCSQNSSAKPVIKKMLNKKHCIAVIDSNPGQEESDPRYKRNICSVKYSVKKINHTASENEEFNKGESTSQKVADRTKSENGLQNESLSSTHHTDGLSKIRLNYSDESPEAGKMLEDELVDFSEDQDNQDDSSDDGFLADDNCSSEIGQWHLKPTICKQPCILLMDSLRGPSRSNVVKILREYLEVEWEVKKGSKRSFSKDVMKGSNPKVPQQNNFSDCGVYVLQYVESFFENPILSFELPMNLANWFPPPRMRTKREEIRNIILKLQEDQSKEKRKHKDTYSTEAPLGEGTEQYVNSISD

[3] = molecular target: T4, Sentrin-specific protease 8 (Homo sapiens, UniProt Q96LD8); assay: SENP8 protease inhibitors, SAR follow-up, biochemical, luminescence (AID 504501); format: functional
T4 sequence (Q96LD8 whole entry): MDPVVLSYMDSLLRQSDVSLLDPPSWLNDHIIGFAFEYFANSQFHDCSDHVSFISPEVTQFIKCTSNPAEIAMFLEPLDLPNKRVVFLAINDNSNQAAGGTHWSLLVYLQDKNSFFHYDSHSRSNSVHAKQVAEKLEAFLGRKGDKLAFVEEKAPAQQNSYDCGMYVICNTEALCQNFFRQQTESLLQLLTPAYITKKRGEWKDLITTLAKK

[4] = molecular target: T5, Replicative DNA helicase DnaB (Mycobacterium tuberculosis, UniProt P9WMR3); assay: DnaB intein splicing inhibitors, dose response, biochemical, cell-free fluorescence (AID 449749); format: functional
T5 sequence (P9WMR3 whole entry): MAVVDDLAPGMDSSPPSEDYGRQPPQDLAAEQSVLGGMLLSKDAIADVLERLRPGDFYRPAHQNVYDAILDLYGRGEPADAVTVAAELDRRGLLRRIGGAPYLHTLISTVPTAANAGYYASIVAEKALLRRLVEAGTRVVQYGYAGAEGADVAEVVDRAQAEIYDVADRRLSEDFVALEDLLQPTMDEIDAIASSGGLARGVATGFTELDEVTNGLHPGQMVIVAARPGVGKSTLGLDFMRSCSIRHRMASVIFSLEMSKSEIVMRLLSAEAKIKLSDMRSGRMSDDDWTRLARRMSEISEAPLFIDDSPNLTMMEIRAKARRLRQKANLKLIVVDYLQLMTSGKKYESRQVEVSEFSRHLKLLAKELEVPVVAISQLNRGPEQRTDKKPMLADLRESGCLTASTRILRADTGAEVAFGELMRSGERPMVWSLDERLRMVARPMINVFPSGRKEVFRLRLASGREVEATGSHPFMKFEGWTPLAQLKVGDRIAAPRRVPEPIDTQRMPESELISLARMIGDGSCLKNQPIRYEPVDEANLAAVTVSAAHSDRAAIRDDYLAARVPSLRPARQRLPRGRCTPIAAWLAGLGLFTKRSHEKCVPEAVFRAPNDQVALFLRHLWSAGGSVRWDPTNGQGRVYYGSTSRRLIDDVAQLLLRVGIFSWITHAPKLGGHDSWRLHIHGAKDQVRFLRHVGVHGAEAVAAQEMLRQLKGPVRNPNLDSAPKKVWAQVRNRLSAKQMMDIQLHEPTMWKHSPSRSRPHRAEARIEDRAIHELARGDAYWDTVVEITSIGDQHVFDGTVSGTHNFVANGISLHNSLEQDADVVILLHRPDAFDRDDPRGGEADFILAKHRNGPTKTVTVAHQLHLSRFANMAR

[5] = Luminescence Cell-Based Dose Retest to Confirm Inhibitors of Cancer Stem Cells. [Related pubchem assays (depositor defined):AID2717, AID2721]; format: functional; conditions: Homo sapiens
[6] = test system: Streptococcus sp. 'group A'; assay: growth inhibition of control SK(-) GAS strain, dose response, counter-screen for streptokinase expression inhibitor project, luminescence, kanamycin, BacTiterGlo, confirmation (AID 1900); format: functional, organism-based
Cysteine protease ATG4B = Cysteine protease ATG4B (Homo sapiens, UniProt Q9Y4P1); format: functional;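 also: Fluorescence-based dose-response confirmation assay measuring inhibition of ATG4B activity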
[7] = molecular target: T6, Ubiquitin-conjugating enzyme E2 N (Homo sapiens, UniProt P61088); format: functional
T6 sequence (P61088 whole entry): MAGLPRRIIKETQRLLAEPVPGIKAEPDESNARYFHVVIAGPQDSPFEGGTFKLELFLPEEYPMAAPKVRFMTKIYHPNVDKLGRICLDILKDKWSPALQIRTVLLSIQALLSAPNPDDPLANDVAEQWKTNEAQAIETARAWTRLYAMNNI

[8] = molecular target: T6, Ubiquitin-conjugating enzyme E2 N; format: functional; remark: listed apart in the source
Bcl-2-related protein A1 = molecular target: T7, Bcl-2-related protein A1 (Mus musculus, UniProt Q07440); format: functional;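 also: confirmatory dose–response counterscreen on Bfl-1, used to check hits from a UBC13 polyubiquitin inhibitor campaign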
T7 sequence (Q07440 whole entry): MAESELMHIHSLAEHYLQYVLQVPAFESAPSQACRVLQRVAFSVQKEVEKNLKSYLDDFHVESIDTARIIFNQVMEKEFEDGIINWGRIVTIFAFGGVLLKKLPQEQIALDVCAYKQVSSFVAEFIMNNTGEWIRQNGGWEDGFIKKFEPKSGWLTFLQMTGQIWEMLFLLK

Streptokinase A = molecular target: T8, Streptokinase A (Streptococcus pyogenes serotype M1, UniProt P10520); assay: S. pyogenes streptokinase expression inhibitors, potency, dose response, plasminogen activation absorbance, OD405 (AID 1914); format: functional, Streptococcus pyogenes M1 GAS;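 also: secreted streptokinase activity via plasminogen activation per viability signal from cell pellet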
T8 sequence (P10520 whole entry): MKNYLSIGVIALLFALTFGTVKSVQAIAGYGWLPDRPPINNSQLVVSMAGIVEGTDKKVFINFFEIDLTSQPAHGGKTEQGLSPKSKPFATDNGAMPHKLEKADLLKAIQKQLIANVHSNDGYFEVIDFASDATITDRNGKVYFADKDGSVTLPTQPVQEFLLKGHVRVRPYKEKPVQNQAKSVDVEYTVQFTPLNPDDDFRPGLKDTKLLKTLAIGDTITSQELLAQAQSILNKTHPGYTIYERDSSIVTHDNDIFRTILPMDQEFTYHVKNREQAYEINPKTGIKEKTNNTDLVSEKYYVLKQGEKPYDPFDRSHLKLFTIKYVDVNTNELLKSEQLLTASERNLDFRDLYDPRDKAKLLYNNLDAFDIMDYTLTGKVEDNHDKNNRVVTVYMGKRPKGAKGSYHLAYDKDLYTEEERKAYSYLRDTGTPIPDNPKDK

Protein RecA = molecular target: T9, Protein RecA (Mycobacterium tuberculosis, UniProt P9WHJ3); assay: Fluorescence Cell-Free Homogeneous Dose Retest to Identify Inhibitors of RecA-Intein Splicing Activity. [Related pubchem assays (depositor defined):AID2097, AID2223, AID489010, AID492950]; format: functional
T9 sequence (P9WHJ3 whole entry): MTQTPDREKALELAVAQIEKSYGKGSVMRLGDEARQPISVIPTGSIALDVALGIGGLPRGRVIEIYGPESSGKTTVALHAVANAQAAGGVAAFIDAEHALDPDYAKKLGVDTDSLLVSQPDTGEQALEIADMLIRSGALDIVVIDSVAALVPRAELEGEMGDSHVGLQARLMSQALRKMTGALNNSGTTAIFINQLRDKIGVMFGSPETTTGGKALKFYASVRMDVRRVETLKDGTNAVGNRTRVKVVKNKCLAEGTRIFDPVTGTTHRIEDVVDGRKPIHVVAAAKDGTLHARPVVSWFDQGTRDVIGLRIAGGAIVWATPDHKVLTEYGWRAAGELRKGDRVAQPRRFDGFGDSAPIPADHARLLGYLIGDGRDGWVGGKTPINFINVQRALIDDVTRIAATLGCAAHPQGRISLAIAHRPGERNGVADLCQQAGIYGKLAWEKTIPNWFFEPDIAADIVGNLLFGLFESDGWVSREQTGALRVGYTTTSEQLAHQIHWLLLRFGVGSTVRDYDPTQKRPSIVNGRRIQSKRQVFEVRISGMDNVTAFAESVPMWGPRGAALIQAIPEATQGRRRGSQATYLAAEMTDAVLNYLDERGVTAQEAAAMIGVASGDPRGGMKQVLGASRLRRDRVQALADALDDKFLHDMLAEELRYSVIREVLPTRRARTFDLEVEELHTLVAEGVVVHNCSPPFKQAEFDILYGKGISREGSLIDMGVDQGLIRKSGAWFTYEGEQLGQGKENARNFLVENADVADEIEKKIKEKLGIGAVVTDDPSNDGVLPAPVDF

Phospholipase A2 = Phospholipase A2 (Homo sapiens, UniProt P04054); format: functional;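 also: confirmatory dose-response counterscreen on phospholipase A2, testing hits that came from an ultra-high-throughput screen for ATG4B inhibitors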
Streptococcus = assay: Group A Streptococcus viability loss, dose response, counter-screen for streptokinase expression inhibitor project, luminescence, BacTiterGlo (AID 1915); format: functional, organism-based;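 also: potency for reduction of bacterial viability or growth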

Cysteine protease ATG4B, sequence (Q9Y4P1 whole entry): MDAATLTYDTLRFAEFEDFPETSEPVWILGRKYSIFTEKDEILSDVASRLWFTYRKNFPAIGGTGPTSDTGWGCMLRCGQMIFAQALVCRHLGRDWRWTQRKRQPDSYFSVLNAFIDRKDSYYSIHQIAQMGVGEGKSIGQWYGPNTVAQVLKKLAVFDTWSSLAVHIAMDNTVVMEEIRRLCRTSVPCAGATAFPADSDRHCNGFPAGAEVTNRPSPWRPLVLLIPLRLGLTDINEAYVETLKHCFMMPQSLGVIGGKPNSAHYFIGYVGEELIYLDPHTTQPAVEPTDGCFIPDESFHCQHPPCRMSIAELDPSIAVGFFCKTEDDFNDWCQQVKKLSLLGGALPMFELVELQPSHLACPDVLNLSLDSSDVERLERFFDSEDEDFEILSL
Phospholipase A2, sequence (P04054 whole entry): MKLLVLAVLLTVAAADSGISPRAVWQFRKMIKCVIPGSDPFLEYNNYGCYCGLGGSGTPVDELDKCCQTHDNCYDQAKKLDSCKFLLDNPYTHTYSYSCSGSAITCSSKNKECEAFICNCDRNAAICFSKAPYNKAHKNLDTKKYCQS

SMILES	IC50 [1]	IC50 (Caspase-3)	IC50 [2]	IC50 [3]	AC50 [4]	AC50 [5]	EC50 [6]	IC50 (Cysteine protease ATG4B)	IC50 [7]	IC50 [8]	IC50 (Bcl-2-related protein A1)	EC50 (Streptokinase A)	EC50 (Protein RecA)	IC50 (Phospholipase A2)	EC50 (Streptococcus)
Cc1cc(NS(=O)(=O)c2ccc(F)c(F)c2)cc2sc(NC(=O)c3ccccc3)nc12	34.3 µM (active)	> 99 µM (inactive)	> 99 µM (inactive)	> 99 µM (inactive)	–	–	–	–	–	–	–	–	–	–	–
Cc1ccc(/C=C/c2nc(-c3ccc(NS(=O)(=O)c4cccs4)cc3)no2)cc1	> 99 µM (inactive)	> 99 µM (inactive)	> 99 µM (inactive)	> 99 µM (inactive)	–	–	–	–	–	–	–	–	–	–	–
CCCCCCCCOC(=O)c1c(CSC(=N)N)n(C)c2cc(Br)c(OC(C)=O)cc12	–	–	–	–	4.36 µM (active)	2.7 µM (active)	2.05 µM (active)	8.63 µM (active)	12.4 µM (active)	4.22 µM (active)	> 20 µM (inactive)	> 150 µM (not active)	1.57 µM (active)	52.2 µM (inactive)	8.01 µM (active)
